Source: PubChem BioAssay AID2060507 (Molecular Pharmacology Branch, DTP, NCI, 2025)
Several values for one entry are separate records, joined by “and”; a condition that tells them apart may be missing. Equal values may be shown once.

Test system: 519858-162-T-J1-PDC complex spheroid viability
Assay: Anticancer human tumor 519858-162-T-J1-PDC patient-derived colon adenocarcinoma cell line growth inhibition [GQUAD]
Conditions: for viability, T/C: stronger effect = lower value
Description: DNA G-quadruplex Stabilizer Agents in Combinations in Complex Spheroids
A high-throughput screen of multi-cell type tumor spheroids was designed to identify active combinations of DNA G-quadruplex stabilizer agents and targeted small molecules. Complex spheroids include a stromal component modeled by human endothelial cells (HUVEC) and fibroblasts modeled by human mesenchymal stem cells (MSCs). The concentration ranges selected for each drug and investigational agent were based upon clinically achievable concentrations if the clinical Cmax of the agent was known.
Compounds. The drugs and investigational agents: pidnarulex (CX-5461; NSC782164), APTO-253 (NSC789042), BRACO-19 (NSC847499), peposertib (NSC802822), ceralasertib (NSC780249), elimusertib (NSC800525), camonsertib (NSC841442), AZD-1390 (NSC803789), olaparib (NSC753686), talazoparib (NSC767125), ART-558 (NSC835418), sotorasib (NSC818433), MRTX-1133 (NSC836407), SN-38 (NSC673596), topotecan (NSC609699), etoposide (NSC141540), doxorubicin (NSC123127), gemcitabine (NSC613327), 5-fluorouracil (NSC19893), paclitaxel (NSC125973), vemurafenib (NSC761431), panobinostat (NSC761190), R-306465 (JNJ-16241199; NSC773264), adavosertib (NSC754352), TP-3654 (NSC805149), carboplatin (NSC241240), KSQ-4279 (NSC840948), and staurosporine (NSC755774) were obtained from the National Cancer Institute (NCI) Developmental Therapeutics Program Chemical Repository (34). The FDA-approved anticancer drug set is available from the NCI Developmental Therapeutics Program. […] The stock solutions were prepared in dimethyl sulfoxide (DMSO, Sigma-Aldrich, St. Louis, MO, cat. D2650) at 800-fold the tested concentration and stored at -70 degrees C prior to their use. All drugs and investigational agents were tested over a range starting from a high concentration at or near the clinical Cmax and decreasing in half-log increments. If the clinical Cmax for an agent had not been determined, the highest concentration tested was 10 microM.
2.3 Cell Culture. All cells were maintained in an incubator at 37 degrees C and 5% CO2 with 95% humidity. The PDC lines were cultured according to standard operating procedures established by the NCI PDMR. All PDCs were thawed and cultured in Matrigel-coated flasks prepared with a working solution of 1X Ham's F-12 nutrient mix, without supplementation (Invitrogen, cat. 11765054), 100 U/mL penicillin-streptomycin (Invitrogen, cat. 15140122), and 2.5% Matrigel (Corning Inc., cat. 354248) for the first three passages. The 857933-349-R-J2-PDC line was cultured in 6C/Colon 1B media, which includes advanced DMEM/F-12 (Thermo Fisher Scientific, cat. 12634028), 10 mM HEPES (Thermo Fisher Scientific, cat. 15630080), 1X GlutaMAX supplement (Thermo Fisher Scientific, cat. 35050061), 0.1 mg/mL primocin (InvivoGen, cat. ant-pm-2), 10% defined fetal bovine serum, heat inactivated (HyClone Laboratories Inc., cat. SH30070.03HI), 50% L-WRN conditioned media (ATCC, cat. CRL-3276), 1.25 mM N-Acetyl-L-cysteine (Sigma-Aldrich, cat. A9165), 10 mM nicotinamide (Sigma-Aldrich, cat. N0636), 1X B-27 supplement (Thermo Fisher Scientific, cat. 17504044), 1X N-2 supplement (Thermo Fisher Scientific, cat. 17502048), 10 microM Y-27632 dihydrochloride (Tocris Bioscience, cat. 1254), and 50 ng/mL human EGF recombinant protein (Thermo Fisher Scientific, cat. PHG0311). The 485176-168-R4-J1-PDC line was cultured in Panc media, which includes all 6C/Colon 1B media components plus 100 ng/mL human FGF-10 (Thermo Fisher Scientific, cat. 100-26), 500 nM SB-431542 (Selleckchem, cat. S1067), and gastrin (Tocris, cat. 3006).
[…]
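Note: spheroids exposed to compounds for 7 days.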
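Throughout, for viability, T/C: 100% = DMSO vehicle control viability.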

C=CC(=O)N1CCN(c2nc(=O)n(-c3c(C)ccnc3C(C)C)c3nc(-c4c(O)cccc4F)c(F)cc23)C(C)C1 (stereo not given)
viability, T/C (compound 0.0316 µM): 75% and 84.1% and 70.8%
viability, T/C (compound 0.1 µM): 84.2% and 85.5% and 98.3%
viability, T/C (compound 0.316 µM): 89% and 80.9% and 104%
viability, T/C (compound 1 µM): 103% and 77.7% and 99%
viability, T/C (compound 3.16 µM): 104% and 70.7% and 95.2%
viability, T/C (compound 10 µM): 71.5% and 91% and 74.5%
IC50 (curve of compound): > 10 µM

CC(C)n1c(=O)n(C)c2cnc3cc(F)c(-c4ccc(OCCCN5CCCCC5)nc4)cc3c21
viability, T/C (compound 0.0316 µM): 123% and 93.8%
viability, T/C (compound 0.1 µM): 107% and 102%
viability, T/C (compound 0.316 µM): 86.9% and 69.8%
viability, T/C (compound 1 µM): 108% and 91.8%
viability, T/C (compound 3.16 µM): 73.7% and 81.7%
viability, T/C (compound 10 µM): 120% and 93.2%
IC50 (curve of compound): > 10 µM

CC1COCCN1c1cc(-c2ccnn2C)c2ccnc(-c3ccn[nH]3)c2n1 (stereo not given)
viability, T/C (compound 0.0316 µM): 103% and 94%
viability, T/C (compound 0.1 µM): 93.7% and 82.9%
viability, T/C (compound 0.316 µM): 96.7% and 65%
viability, T/C (compound 1 µM): 117% and 98.3%
viability, T/C (compound 3.16 µM): 58.8% and 39.7%
viability, T/C (compound 10 µM): 34.3% and 26.3%
IC50 (curve of compound): 4.78 µM and 2.43 µM

CC1COCCN1c1cc(C2(O)CC3CCC(C2)O3)c2cnn(-c3ccn[nH]3)c2n1 (stereo not given)
viability, T/C (compound 0.0316 µM): 109% and 94.9%
viability, T/C (compound 0.1 µM): 107% and 101%
viability, T/C (compound 0.316 µM): 89.3% and 63%
viability, T/C (compound 1 µM): 70.9% and 74%
viability, T/C (compound 3.16 µM): 93.6% and 47.8%
viability, T/C (compound 10 µM): 66.3% and 38%
IC50 (curve of compound): > 10 µM and 3.34 µM

CC1COCCN1c1cc(C2(S(C)(=N)=O)CC2)nc(-c2ccnc3[nH]ccc23)n1 (stereo not given)
viability, T/C (compound 0.0316 µM): 118% and 109% and 93.2%
viability, T/C (compound 0.1 µM): 80.8% and 90.4% and 89.4%
viability, T/C (compound 0.316 µM): 80.8% and 111% and 79%
viability, T/C (compound 1 µM): 115% and 98.5% and 105%
viability, T/C (compound 3.16 µM): 51.5% and 98.4% and 90.3%
viability, T/C (compound 10 µM): 61.3% and 105% and 86.2%
IC50 (curve of compound): > 10 µM

CC[C@@]1(O)C(=O)OCc2c1cc1n(c2=O)Cc2cc3c(CN(C)C)c(O)ccc3nc2-1
viability, T/C (compound 0.000999 µM): 86.1% and 63.7%
viability, T/C (compound 0.00316 µM): 69.6% and 123%
viability, T/C (compound 0.00999 µM): 93.4% and 97%
viability, T/C (compound 0.0316 µM): 141% and 107%
viability, T/C (compound 0.0999 µM): 90.9% and 92.7%
viability, T/C (compound 0.316 µM): 75.1% and 69.3%
IC50 (curve of compound): > 0.316 µM

CCc1c2c(nc3ccc(O)cc13)-c1cc3c(c(=O)n1C2)COC(=O)[C@]3(O)CC
viability, T/C (compound 0.000999 µM): 95% and 84%
viability, T/C (compound 0.00316 µM): 74.7% and 67.6%
viability, T/C (compound 0.00999 µM): 43.7% and 57.5%
viability, T/C (compound 0.0316 µM): 68.9% and 65.7%
viability, T/C (compound 0.0999 µM): 89.6% and 60.6%
viability, T/C (compound 0.316 µM): 64.6% and 78.9%
IC50 (curve of compound): > 0.316 µM

CN(C)c1ccc(Nc2c3ccc(NC(=O)CCN4CCCC4)cc3nc3cc(NC(=O)CCN4CCCC4)ccc23)cc1
viability, T/C (compound 0.0316 µM): 85.1% [middle of 7 runs]
viability, T/C (compound 10 µM): 67.7% [middle of 7 runs]
IC50 (compound alone, run of 02/26/2024): > 10 µM

COc1cc(C2c3cc4c(cc3C(OC3OC5COC(C)OC5C(O)C3O)C3COC(=O)C23)OCO4)cc(OC)c1O (stereo not given)
viability, T/C (compound 0.0316 µM): 165% and 107% and 86%
viability, T/C (compound 0.1 µM): 90.6% and 89.7% and 81.6%
viability, T/C (compound 0.316 µM): 82.8% and 98% and 61.3%
viability, T/C (compound 1 µM): 123% and 112% and 70.1%
viability, T/C (compound 3.16 µM): 75% and 96.2% and 89.7%
viability, T/C (compound 10 µM): 80.6% and 72.3% and 83.6%
IC50 (curve of compound): > 10 µM

COc1ccc([C@@H](O)c2cc(-c3ncnc4cc(N5CCOCC5)ccc34)c(F)cc2Cl)nn1
viability, T/C (compound 0.0316 µM): 103% and 120% and 90.1%
viability, T/C (compound 0.1 µM): 49.1% and 113% and 99.8%
viability, T/C (compound 0.316 µM): 76% and 95.2% and 69%
viability, T/C (compound 1 µM): 94% and 100% and 121%
viability, T/C (compound 3.16 µM): 82.1% and 102% and 73.5%
viability, T/C (compound 10 µM): 66.8% and 87.3% and 67.6%
IC50 (curve of compound): > 10 µM

COc1cccc2c1C(=O)c1c(O)c3c(c(O)c1C2=O)CC(O)(C(=O)CO)CC3OC1CC(N)C(O)C(C)O1 (stereo not given)
viability, T/C (compound 0.0316 µM): 72.4% and 79.2% and 88.8%
viability, T/C (compound 0.1 µM): 87.7% and 101% and 80.3%
viability, T/C (compound 0.316 µM): 96.6% and 91.6% and 71.9%
viability, T/C (compound 1 µM): 104% and 73.1% and 83.7%
viability, T/C (compound 3.16 µM): 68.2% and 95.1% and 53.9%
viability, T/C (compound 10 µM): 82.8% and 70.4% and 46.2%
IC50 (curve of compound): > 10 µM and 5.66 µM

Cc1[nH]c2ccccc2c1CCNCc1ccc(/C=C/C(=O)NO)cc1
viability, T/C (compound 0.000999 µM): 94.4%
viability, T/C (compound 0.00316 µM): 108%
viability, T/C (compound 0.00999 µM): 74.3%
viability, T/C (compound 0.0316 µM): 107%
viability, T/C (compound 0.0999 µM): 75.5%
viability, T/C (compound 0.316 µM): 50.6%
IC50 (curve of compound): > 0.316 µM

Cc1cccc(N(C)C(=O)C2C(O)CCN2c2nc(C)cc(C(F)(F)F)c2C#N)c1 (stereo not given)
viability, T/C (compound 0.0316 µM): 110% and 112%
viability, T/C (compound 0.1 µM): 88.1% and 75.7%
viability, T/C (compound 0.316 µM): 95.8% and 74.5%
viability, T/C (compound 1 µM): 111% and 116%
viability, T/C (compound 3.16 µM): 106% and 101%
viability, T/C (compound 10 µM): 93.9% and 80.4%
IC50 (curve of compound): > 10 µM

Cn1ncnc1[C@H]1c2n[nH]c(=O)c3cc(F)cc(c23)N[C@@H]1c1ccc(F)cc1
viability, T/C (compound 0.000999 µM): 83.7% and 86.3%
viability, T/C (compound 0.00316 µM): 82.9% and 98.9%
viability, T/C (compound 0.00999 µM): 105% and 58.1%
viability, T/C (compound 0.0316 µM): 92.4% and 96.9%
viability, T/C (compound 0.0999 µM): 119% and 84.3%
viability, T/C (compound 0.316 µM): 116% and 59.9%
IC50 (curve of compound): > 0.316 µM

Nc1ccn(C2OC(CO)C(O)C2(F)F)c(=O)n1 (stereo not given)
viability, T/C (compound 0.0316 µM): 78.1%
viability, T/C (compound 0.1 µM): 91.4%
viability, T/C (compound 0.316 µM): 92.2%
viability, T/C (compound 1 µM): 94.6%
viability, T/C (compound 3.16 µM): 96.3%
viability, T/C (compound 10 µM): 79%
IC50 (curve of compound): > 10 µM

O=C(c1cc(Cc2n[nH]c(=O)c3ccccc23)ccc1F)N1CCN(C(=O)C2CC2)CC1
viability, T/C (compound 0.0316 µM): 86.5% and 87.2%
viability, T/C (compound 0.1 µM): 88.4% and 82.1%
viability, T/C (compound 0.316 µM): 115% and 95.4%
viability, T/C (compound 1 µM): 102% and 79.3%
viability, T/C (compound 3.16 µM): 86.3% and 93%
viability, T/C (compound 10 µM): 103% and 69.9%
IC50 (curve of compound): > 10 µM

O=c1[nH]cc(F)c(=O)[nH]1
viability, T/C (compound 0.0316 µM): 91.9%
viability, T/C (compound 0.1 µM): 115%
viability, T/C (compound 0.316 µM): 95.7%
viability, T/C (compound 1 µM): 107%
viability, T/C (compound 3.16 µM): 77%
viability, T/C (compound 10 µM): 80.2%
IC50 (curve of compound): > 10 µM
